Values quoted from earlier work as cited in patent US20180092930A1, “METHODS OF DIAGNOSING AND TREATING ABIRATERONE ACETATE- GLUCOCORTICOID -RESISTANT OR -SENSITIVE METASTATIC CASTRATION RESISTANT PROSTATE CANCER” (Janssen Pharmaceutica NV, priority 2016, published 2018).
Where two headings read alike, the source gives them in different places.

Assays:
[1] = tested on: CRPC; details: pooled patients treated with AA or enzalutamide
[2] = tested on: castration-resistant prostate cancer

Row | Structure (SMILES) | OS ([1]; ARV7+ at baseline) | OS ([1]; ARV7- at baseline) | PSA response rate ([2]; ARV7-negative patients) | PSA-PFS, median ([2]; ARV7-negative patients) | clinical or radiographic progression-free survival, median ([2]; ARV7-negative patients) | overall survival, median ([2]; ARV7-negative patients) | PSA response rate ([2]; ARV7-positive patients) | PSA-PFS, median ([2]; ARV7-positive patients) | clinical or radiographic progression-free survival, median ([2]; ARV7-positive patients) | overall survival, median ([2]; ARV7-positive patients)
1 | CNC(=O)c1ccc(N2C(=S)N(c3ccc(C#N)c(C(F)(F)F)c3)C(=O)C2(C)C)cc1F [enzalutamide] | 8 months | not reached |  |  |  |  |  |  |  | 
2 | CC(=O)O[C@H]1CC[C@@]2(C)C(=CC[C@@H]3[C@@H]2CC[C@]2(C)C(c4cccnc4)=CC[C@@H]32)C1 [abiraterone acetate] | 8 months | not reached | 68% | not reached | not reached | not reached | 0% | 1.3 months | 2.3 months | 10.6 months
